Experimental data reported in patent publication US10537104B2, “Insecticide mixtures comprising loline alkaloids” (SYNGENTA PARTICIPATIONS AG, priority 2016, dated 2020).

Assays:
Myzus persicae = assay: Tests against Myzus persicae: sprayed sunflower leaf discs, mortality; format: in vivo; conditions: 6 days after infestation
From the text: (§1) A synergistic effect exists whenever the action of an active ingredient combination is greater than the sum of the actions of the individual components. The action to be expected E for a given active ingredient combination obeys the so-called COLBY formula and can be calculated as follows (COLBY, S. R. “Calculating synergistic and antagonistic responses of herbicide combination”. Weeds, Vol. 15, pages 20-22 1967):
(§2) According to Colby, the expected (additive) action of active ingredients A+B using p+q ppm of active ingredient is
(§3) If the action actually observed O is greater than the expected action E, then the action of the combination is super-additive, i.e. there is a synergistic effect. In mathematical terms, synergism corresponds to a positive value for the difference of (O-E). In the case of purely complementary addition of activities (expected activity), said difference (O-E) is zero. A negative value of said difference (O-E) signals a loss of activity compared to the expected activity.
Component (A1) is a mixture of NAL, NFL and NANL in a weight ratio of about approximately 1:4:2. Stock solutions of thiamethoxam and flonicamid were prepared respectively by dissolving the technical active ingredient in DMSO. The aqueous test solutions were prepared by mixing together the appropriate stock solutions to the desired concentrations.
Tests Against Myzus persicae
Sunflower leaf discs were placed on agar in a 24-well microtiter plate and sprayed with aqueous test solutions prepared from DMSO stock solutions. After drying, the leaf discs were infested with an aphid population of mixed ages. The samples were assessed for mortality 6 days after infestation.

Thrips tabaci = assay: Tests against Thrips tabaci: sprayed sunflower leaf discs, mortality; format: in vivo; conditions: 6 days after infestation
From the text: as §1, §2, §3
Component (A1) is a mixture of NAL, NFL and NANL in a weight ratio of about approximately 1:4:2. […]
Sunflower leaf discs were placed on agar in 24-well microtiter plates and sprayed with aqueous test solutions prepared from DMSO stock solutions. […] The samples were assessed for mortality 6 days after infestation.

Compound | % Mortality Measured (Myzus persicae; flonicamid 3.125 ppm alone) [%] | % Mortality Measured (Myzus persicae; flonicamid 6.25 ppm alone) [%] | % Mortality Measured (Myzus persicae; flonicamid 12.5 ppm alone) [%] | % Mortality Measured (Thrips tabaci; flonicamid 100 ppm alone) [%] | % Mortality Measured (Thrips tabaci; flonicamid 200 ppm alone) [%] | mortality at 0.4 ppm (Myzus persicae; Myzus persicae, foliar, 144 h, thiamethoxam 0.4 ppm alone, read-out: % Mortality Measured) [%] | mortality at 0.8 ppm (Myzus persicae; Myzus persicae, foliar, 144 h, thiamethoxam 0.8 ppm alone, read-out: % Mortality Measured) [%] | mortality at 1.6 ppm (Myzus persicae; Myzus persicae, foliar, 144 h, thiamethoxam 1.6 ppm alone, read-out: % Mortality Measured) [%]
N#CCNC(=O)c1cnccc1C(F)(F)F [Flonicamid, flonicamid] | 0 | 65 | 90 | 0 | 0 | – | – | –
CN1COCN(Cc2cnc(Cl)s2)/C1=N\[N+](=O)[O-] [Thiamethoxam, thiamethoxam] | – | – | – | – | – | 0 | 0 | 45
